Measurements as given in patent US20160257735A1, “REGULATION OF NPVF GENE AND ITS PRODUCTS: A METHOD FOR MODULATING ENERGY IMBALANCE” (Institute of Animal Reproduction and Food Research PAS, priority 2015, published 2016).
Ends that are not written are not given here.

Columns and labels:
[1] = molecular target: NPFFR1 (Homo sapiens, UniProt Q9GZQ6); conditions: cited from earlier work
[2] = tested on: Npvf mRNA in hypothalamus; experiment: CL 316,243 or saline administration for 7 days at 29° C., Npvf mRNA in hypothalamus by qRT-PCR; type: in vivo, mice (C57BL/6J); conditions: one week administration, 1 mg/kg of body weight, subcutaneous, mice at 29° C.
Method: Total RNA was isolated from adipose tissue, liver and hypothalamus using TRI Reagent and BCP phase separation reagent (Molecular Research Center Inc. Cincinnati, Ohio, United States). RNA was further purified by using the RNAeasy minikit (QIAGEN, Valencia, Calif., United States) and stored at −80° C. in RNase-free H2O with addition of SUPERase-In (Ambion, Austin, Tex., United States) for RNase protection. Quality and quantity of RNA was determined using UV spectrophotometry (Nanodrop) and agarose gel visualization of intact RNA. Quantitative RT-PCR using TaqMan probes and primers (Applied Biosystems, Foster City, Calif., United States) was performed with standard curves generated using pooled RNA isolated from corresponding tissues collected from eight 8 week old C57BL/6J.+/+ mice. Probe and primer sequences used to perform the analyses are available upon request. All the gene expression data were normalized to the level of cyclophilin b.
To establish the influence of different ambient temperature on Npvf expression mice were kept in climate-controlled rodent incubators. To evaluate the effects of the β adrenergic receptor agonist on Ucp1 and Npvf, thermoneutrally acclimated mice were injected subcutaneously with 1 mg kg^−1 […] or saline for 7 days.
All mice used in the following studies were adult wild-type C57BL/6J+/+ mice. […]

[3] = tested on: NPFF receptors (NPFF1 and NPFF2 subtypes); conditions: cited from earlier work
[4] = molecular target: T1, rat orphan 7TM GPCR (OT7T022, GPR147, NPFFR1) (Rattus norvegicus, UniProt Q9EP86); conditions: synthetic RFRPs; cited from earlier work
T1 construct: expressed in transfected cells; host or cells: CHO cells
T1 sequence (Q9EP86 whole entry): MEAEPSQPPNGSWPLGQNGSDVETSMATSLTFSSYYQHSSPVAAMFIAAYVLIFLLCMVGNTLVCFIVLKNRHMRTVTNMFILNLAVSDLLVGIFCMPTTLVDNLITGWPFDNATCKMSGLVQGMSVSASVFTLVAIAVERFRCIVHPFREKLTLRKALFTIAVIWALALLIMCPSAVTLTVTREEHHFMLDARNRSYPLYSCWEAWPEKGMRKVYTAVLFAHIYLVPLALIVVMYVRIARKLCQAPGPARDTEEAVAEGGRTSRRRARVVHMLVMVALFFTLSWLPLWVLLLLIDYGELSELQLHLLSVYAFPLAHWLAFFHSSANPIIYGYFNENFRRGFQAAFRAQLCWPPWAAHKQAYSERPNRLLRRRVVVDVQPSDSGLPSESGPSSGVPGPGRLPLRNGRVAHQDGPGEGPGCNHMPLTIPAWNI

Chain of NPFFR1 (Q9GZQ6 whole entry, species assumed): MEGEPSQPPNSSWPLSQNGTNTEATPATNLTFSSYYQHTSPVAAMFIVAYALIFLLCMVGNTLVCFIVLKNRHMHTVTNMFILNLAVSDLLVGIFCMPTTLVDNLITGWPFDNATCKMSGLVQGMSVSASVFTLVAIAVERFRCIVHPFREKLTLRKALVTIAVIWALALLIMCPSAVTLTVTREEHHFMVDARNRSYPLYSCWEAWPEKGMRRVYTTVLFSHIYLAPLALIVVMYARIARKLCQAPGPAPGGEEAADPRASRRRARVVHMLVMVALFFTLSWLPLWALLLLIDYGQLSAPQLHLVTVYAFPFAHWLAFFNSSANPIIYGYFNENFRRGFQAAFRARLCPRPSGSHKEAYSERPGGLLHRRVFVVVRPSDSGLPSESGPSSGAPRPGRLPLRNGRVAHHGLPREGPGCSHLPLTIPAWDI

Compound: NC(N)=NCCC[C@@H](NC(=O)C(c1ccccc1)c1ccccc1)C(=O)NCc1ccc(O)cc1 [BIBP3226]
- binding to NPFFR1 [1]: has been shown to bind to NPFFR1

Compound: C[C@H](Cc1ccc2c(c1)OC(C(=O)[O-])(C(=O)[O-])O2)NC[C@H](O)c1cccc(Cl)c1.[Na+].[Na+] [CL 316,243]
- suppression of Npvf mRNA in hypothalamus compared to saline-treated control mice [2]: did not result in the suppression of Npvf mRNA in hypothalamus

Compound: NC(=O)[C@H](Cc1ccccc1)NC(=O)[C@H](CCCN=C(N)N)NC(=O)C12CC3CC(CC(C3)C1)C2 [RF9, adamantylcarbonyl-arginyl-phenylalaninamide]
- discrimination between NPFF1 and NPFF2 subtypes [3]: does not distinguish between the NPFF1 and NPFF2 subtypes
- selectivity for NPFF receptors [3]: selective for NPFF receptors

Compound: RFRP-1: RFamide-related peptide derived from Npvf precursor; human sequence MPHSFANLPLRF-NH(2) (SEQ ID NO: 1) (MPHSFANLPLRF-NH2; listed as Homo sapiens)
- response of GPR147-transfected CHO cell lines [4]: responded specifically

Compound: RFRP-3: RFamide-related peptide derived from Npvf precursor; human sequence VPNLPQRF-NH(2) (SEQ ID NO: 2)
- response of GPR147-transfected CHO cell lines [4]: responded specifically
